Several values for one entry are separate records, joined by “and”; a condition that tells them apart may be missing. Equal entries are not always repeated.
Key:
[1] = system: Caco-2 cells; experiment: Lactate dehydrogenase (LDH) release assay; format: cell-based; details: Caco-2, 24 h exposure, 50% release of LDH
Experimental: (§1) Caco-2 and Calu-3 cells were seeded in sterile 96-well culture plates at a density of 3 × 10^4 cells per well. Surfactant solutions (at the same concentration as in MTT assay described above) were added to the cells and incubated at 37 °C for 24 h. Triton X-100 at 1% v/v was used as positive control. LDH release assay was conducted according to the manufacturer’s protocol. The percentage of released LDH was calculated relative to the controls by taking samples treated with Triton X-100 as complete LDH release and untreated cells as nil LDH release.
(§2) The concentration of surfactant that caused a 50% release of LDH (IC50, mM), was calculated by fitting the experimental data with dose–response model (Prism 6, Version 6.0b, GraphPad Software).

[2] = system: Calu-3 cells; experiment: Lactate dehydrogenase (LDH) release assay; format: cell-based; details: Calu-3, 24 h exposure, 50% release of LDH; for IC50: Homo sapiens
Experimental: as §1, §2

[3] = system: Calu-3 cell monolayer; experiment: Trans-epithelial electrical resistance (TEER) measurement; format: cell-based; details: Calu-3 monolayer, apical, 2 h, applied at MTT IC50 and at highest 100% viability concentration
Experimental: (§3) Caco-2 and Calu-3 cells were seeded at a density of 2 × 10^5 cells per well on filter inserts (Transwell® Permeable Support 12 mm Insert, Corning Life Sciences, Tewksbury, MA, USA) and cultured to confluence under air-liquid interface conditions. Culture media on the baso-lateral sides of the cells were changed every 24 h. For TEER measurements, culture medium was discarded from the cell layer and replaced with Kreb’s Balanced Saline Solutions (KBSS) on both the apical and baso-lateral sides of the monolayers. Cell layers were allowed equilibrating in KBSS at 37 °C, 5% CO2 for 45 min prior to sample application. Baseline TEER was measured before the treatment with surfactants. For each surfactant, concentrations that caused 50% cell viability, and the highest concentration that maintained 100% cell viability (according to the MTT assay) were added to the apical sides of the cell layers and incubated for 2 h. TEER was then measured at 5, 30, 60, 90 and 120 min after surfactant addition. Between TEER measurements, cells were incubated at normal cell culture conditions. After 120 min, surfactant was removed, and culture media were added to both sides of the filter inserts. TEER measurement was conducted again after 24 h to evaluate the recovery of cell monolayers. A volt-ohmmeter (Millcell® ERS-2 Voltohmmeter, Millipore, Burlington, MA, USA) equipped with a pair of electrodes was used for TEER measurement. Baseline TEER measured from cell layers incubated in KBSS was used as control and the change in TEER was presented as a percentage relative to baseline value. Three independent experiments were performed in duplicate.

[4] = system: Caco-2 cells; experiment: MTT cell viability assay; format: cell-based; details: Caco-2, 24 h exposure, 50% reduction of viable cells; for IC50: Homo sapiens
Experimental: (§4) Caco-2 and Calu-3 cells were seeded in sterile 96-well culture plates at a density of 3 × 10^4 cells per well. The cells were incubated to attain at least 80% confluence before the experiment. Stock solutions of surfactants were prepared in phosphate buffered saline (PBS). They were diluted at various concentrations (from 0.0078 to 1 mg/mL) in cell culture medium before added to the cells. Complete culture media were used as control. The cytotoxic effect of each surfactant was evaluated using the MTT cell viability assay. After 24 h of incubation, surfactant solution was discarded and replaced by MTT solution (0.8 mg/mL). The cells were subjected to MTT treatment for 2 h. Formazan crystals formed were then dissolved in absolute isopropanol and incubated with gentle shaking at room temperature for 15 min. Absorbance was measured at 570 nm using a microplate reader (Multiskan™ GO Microplate Spectrophotometer Thermo Scientific, Waltham, MA, USA). Percentage of viable cells was calculated using untreated cells as control with 100% cell viability. The percentage of viable cells was plotted against log concentration of the surfactants. IC50 (mg/mL), the concentration of surfactant that caused a 50% reduction in cell viability was calculated by fitting the experimental data with dose–response model (Prism 6, Version 6.0b, GraphPad Software).

[5] = system: Calu-3 cells; experiment: MTT cell viability assay; format: cell-based; details: Calu-3, 24 h exposure, 50% reduction of viable cells; for IC50: Homo sapiens
Experimental: as §4

[6] = Surface tension measurements (tensiometry), CMC determination; format: physicochemical; details: for Amin (minimum area per surfactant molecule): air-water interface, calculated from Γmax; for γCMC (surface tension at CMC) / CMC (critical micelle concentration): in water, room temperature; for CMC (critical micelle concentration): straight-line interception method; for Γmax × 10^−6 (maximum surface excess): values × 10^−6, Gibbs equation from surface tension plot
Experimental: Surface tension of different concentrations of surfactant solutions in water was measured using a platinum cylindrical rod probe with wetted length of 1.6 mm (K100-Krüss force tensiometer, Hamburg, Germany) at room temperature. Approximately 1 mL of each surfactant solution was placed onto a Teflon plate and the surface of the liquid was aspirated to remove any remaining impurities. Then, the rod probe was immersed 2 mm into the liquid. Data are expressed as the mean of three repeated measurements performed at room temperature. The critical micelle concentration and the surface tension at the CMC (γCMC) were calculated through the straight-line interception method, while the Gibbs surface excess (Γmax) was calculated from the following equation:(1) Γmax=1/2.303 × n × R × T (δγ/δlogC) where T is the absolute temperature, R is the gas constant (8.314 J/mol K), C is the surfactant concentration, n = 1 for a non-ionic candidate. δγ/δlogC was calculated from the maximum slope of the plot surface tension vs. surfactant concentration in the linear region before CMC.
The minimum area per surfactant molecule at the air-water interface (Amin) was determined as follow:(2) Amin= 10^18/N × Γmax where N is the Avogadro number.

[7] = system: Caco-2 cell monolayer; experiment: Trans-epithelial electrical resistance (TEER) measurement; format: cell-based; details: Caco-2 monolayer, apical, 2 h; applied at MTT IC50 and at highest 100% viability concentration
Experimental: as §3

[8] = system: Caco-2 cells; experiment: Mitochondrial membrane potential (JC-1 assay); format: cell-based; details: Caco-2, 24 h in HBSS, same concentrations compared
Experimental: (§5) Caco-2 and Calu-3 cells were seeded in sterile 96 well plates at a density of 1 × 10^4 cells per well and cultured for 24 h. As above, surfactant solutions were applied in Hank’s balanced salt solution (HBSS) for 24 h. One millimolar FCCP was employed as the positive, mitochondrial depolarizing control. Following exposure, treatments were removed and cells were washed twice with PBS prior to the addition of 50 µL (5 µg/mL) JC-1 dye diluted in complete DMEM (without antibiotics) per well for 15 min at 37 °C. Dye solution was then removed and wells washed with PBS followed by addition of 50 µL/well PBS prior to measuring fluorescence at 550/600 nm (λex/λem) for detection of JC-1 J-aggregates and 485/535 nm (λex/λem) for detection of JC-1 monomers. A ratio between JC-1 aggregates and JC-1 monomer signals was then taken, and data normalized by setting the untreated control as a value of 1.0 and the positive control (1.0 mM FCCP) as a value of 0.0.

[9] = system: Calu-3 cells; experiment: Mitochondrial membrane potential (JC-1 assay); format: cell-based; details: Calu-3, 24 h in HBSS, same concentrations compared
Experimental: as §5

IC50 ([1]; Homo sapiens, Caco-2, 24 h) [µM]	IC50 [2] [µM]	IC50 [4] [µM]	IC50 [5] [µM]	Amin (minimum area per surfactant molecule) [6] [Å^2]	γCMC (surface tension at CMC) [6] [mN/m]	CMC (critical micelle concentration) [6]	γCMC (surface tension at CMC) ([6]; listed as lactose caprate)	Γmax × 10^−6 (maximum surface excess) [6] [mol/m^2]	γCMC (surface tension at CMC) ([6]; listed as lactose laurate)	IC50 [1] [µM]	SMILES	LDH Assay IC50 [1]	LDH Assay IC50 [2]	effect on TEER [3]	effect on TEER ([3]; listed as lactose caprate)	MTT Assay IC50 [4]	MTT Assay IC50 [5]	effect on TEER [7]	mitochondrial membrane potential (J-aggregates:J-monomers ratio) [8]	mitochondrial membrane potential (J-aggregates:J-monomers ratio) [9]
> 2000	> 2000	> 2000	> 2000	17.46 ± 0.25	40.6 ± 0.04	2.58 ± 0.32 mM	around 40 mN/m	9.52 ± 0.11	–	–	CCCCCCCCCC(=O)OC[C@H]1O[C@@H](O[C@H]2[C@H](O)[C@@H](O)[C@@H](O)O[C@@H]2CO)[C@H](O)[C@@H](O)[C@H]1O [Lactose caprate, 6′-O-Decanoyl-4-O-(β-D-galactopyranosyl)-D-glucopyranose]	higher than the tested concentration range	higher than the tested concentration range	more significant decrease in TEER in Calu-3 cells compared to Caco-2 cells	only slightly affected the TEER	higher than the tested concentration range	higher than the tested concentration range	–	–	–
597	452	376	1070	17.45 ± 0.09	40.4 ± 0.02	0.55 ± 0.02 mM	–	9.52 ± 0.05	around 40 mN/m	–	CCCCCCCCCCCC(=O)OC[C@H]1O[C@@H](O[C@H]2[C@H](O)[C@@H](O)[C@@H](O)O[C@@H]2CO)[C@H](O)[C@@H](O)[C@H]1O [Lactose laurate, 6′-O-Dodecanoyl-4-O-(β-D-galactopyranosyl)-D-glucopyranose]	–	–	most effective surfactant in decreasing the TEER at both tested concentrations	–	–	–	moderate reduction of TEER	–	–
194	189	112	261	19.86 ± 0.80	45.6 ± 0.19	0.14 ± 0.05 mM	–	8.37 ± 0.46	–	–	CCCCCCCCCCCCCC(=O)OC[C@H]1O[C@@H](O[C@H]2[C@H](O)[C@@H](O)[C@@H](O)O[C@@H]2CO)[C@H](O)[C@@H](O)[C@H]1O [Lactose myristate, 6′-O-Tetradecanoyl-4-O-(β-D-galactopyranosyl)-D-glucopyranose]	–	–	–	–	–	–	–	–	–
194	142	60	122	25.69 ± 0.43	45.1 ± 0.33	0.08 mM and 0.08 ± 0.03 mM	–	6.46 ± 0.11	–	163	CCCCCCCCCCCCCCCC(=O)OC[C@H]1O[C@@H](O[C@H]2[C@H](O)[C@@H](O)[C@@H](O)O[C@@H]2CO)[C@H](O)[C@@H](O)[C@H]1O [Lactose palmitate, 6′-O-Esadecanoyl-4-O-(β-D-galactopyranosyl)-D-glucopyranose]	–	–	–	–	–	–	–	highest cytotoxic effect	highest cytotoxic effect
